Read-outs that look alike come from different tables or passages of the source.
Assays:
H460 cells = experiment: Proliferation assay in H460 cells (2 hr exposure, AlamarBlue); type: cell-based, human; settings: wash, 70 hrs growth, read-out: IC 50 in proliferation assay in H460 cells
Protocol: In vitro proliferation data on the H460 […] human tumor cell line is reported above in the compound table.
Specifically, exponentially growing cells were seeded at a density of 4×10^3 cells per well in a 96 well plate and incubated at 37° C. in 5% CO2, 95% air and 100% relative humidity for 24 hours prior to addition of test compounds. Compounds were solubilized in 100% DMSO at 200 times the desired final test concentration. At the time of drug addition, compounds were further diluted to 4 times the desired final concentration with complete medium. Aliquots of 50 μl of compound at specified concentrations were added to microtiter wells already containing 150 μl of medium, resulting in the final drug concentration reported. After drug addition, the plates were incubated for an additional 2 hours at 37° C., 5% CO2, 95% air, and 100% relative humidity, then the drug was washed off and fresh medium was added and the plates were incubated for addition 70 hrs at 37° C., 5% CO2, 95% air and 100% relative humidity. At the end of this incubation, the viable cells were quantified using the AlamarBlue assay. The drug concentration resulting in growth inhibition of 50% (IC50) was calculated using Prism software (Irvine, Calif.), and the results were listed in the table.

[1] = Pharmacokinetics in CD-1 mice following a single intraperitoneal dose (parent and TH2660); settings: mouse, in vivo, ip, parent compound
Protocol: The pharmacokinetics of TH2873, TH2883, TH2888, TH2890, TH2901 and TH2926 were determined in CD-1 mice following a single intraperitoneal dose.
The pharmacokinetics of TH2660, the active metabolite, following a single intraperitoneal dose of TH2873, TH2883, TH2888, TH2890, TH2901 and TH2926 are shown below.

[2] = Homo sapiens, NCI-H460, 2 hrs exposure

Compound: O=[N+]([O-])c1ccc(COP(=O)(N2CC2)N2CC2)cc1Oc1ccc2ncsc2c1 [Compound 2901]
- IC50 (H460 cells; [2]): 3 nM
- AUC [1]: 2580 ng·h/mL
- Cmax [1]: 5120 ng/mL
- Tmax [1]: 5 min
- half-life [1]: 12.1 min

Compound: CC(OP(=O)(N1CC1)N1CC1)c1ccc([N+](=O)[O-])c(Oc2ccc(NS(=O)(=O)CCl)cc2)c1 (stereo not drawn) [Compound 2926]
- IC50 (H460 cells; [2]): 20 nM
- AUC [1]: 9650 ng·h/mL
- Cmax [1]: 8340 ng/mL
- Tmax [1]: 15 min
- half-life [1]: 34.2 min

Compound: N#Cc1ccc(Oc2cc(COP(=O)(N3CC3)N3CC3)ccc2[N+](=O)[O-])cc1 [Compound 2927]
- IC50 (H460 cells; [2]): 3 nM

Compound: Cc1nc2cc(Oc3cc(C(C)OP(=O)(N4CC4)N4CC4)ccc3[N+](=O)[O-])ccc2s1 (stereo not drawn) [Compound 2928]
- IC50 (H460 cells; [2]): 30 nM

Compound: Cc1nc2cc(Oc3cc(COP(=O)(N4CC4)N4CC4)ccc3[N+](=O)[O-])ccc2s1 [Compound 2929]
- IC50 (H460 cells; [2]): 30 nM

Compound: Cc1nc2ccc(Oc3cc(C(C)OP(=O)(N4CC4)N4CC4)ccc3[N+](=O)[O-])cc2s1 (stereo not drawn) [Compound 2930]
- IC50 (H460 cells; [2]): 2 nM

Compound: CC(OP(=O)(N1CC1)N1CC1)c1ccc([N+](=O)[O-])c(Oc2c(F)cccc2F)c1 (stereo not drawn) [Compound 2932]
- IC50 (H460 cells; [2]): 20 nM

Compound: CC(OP(=O)(N1CC1)N1CC1)c1ccc([N+](=O)[O-])c(Oc2cnc3cccnc3c2)c1 (stereo not drawn) [Compound 2933]
- IC50 (H460 cells; [2]): 100 nM

Compound: O=[N+]([O-])c1ccc(Oc2cc(COP(=O)(N3CC3)N3CC3)ccc2[N+](=O)[O-])cc1 [Compound 2934]
- IC50 (H460 cells; [2]): 3 nM

Compound: CC(OP(=O)(N1CC1)N1CC1)c1ccc([N+](=O)[O-])c(Oc2ccc([N+](=O)[O-])cc2)c1 (stereo not drawn) [Compound 2935]
- IC50 (H460 cells; [2]): 20 nM

Compound: CNC(=O)c1cccc(Oc2cc(COP(=O)(N3CC3)N3CC3)ccc2[N+](=O)[O-])c1 [Compound 2937]
- IC50 (H460 cells; [2]): 2 nM

Compound: CN(C)C(=O)c1ccccc1Oc1cc(COP(=O)(N2CC2)N2CC2)ccc1[N+](=O)[O-] [Compound 2938]
- IC50 (H460 cells; [2]): 2500 nM

Compound: CNC(=O)c1ccccc1Oc1cc(COP(=O)(N2CC2)N2CC2)ccc1[N+](=O)[O-] [Compound 2939]
- IC50 (H460 cells; [2]): 2700 nM

Compound: CNC(=O)c1ccc(Oc2cc(COP(=O)(N3CC3)N3CC3)ccc2[N+](=O)[O-])cc1 [Compound 2940]
- IC50 (H460 cells; [2]): 5 nM

Compound: CN(C)C(=O)c1ccc(Oc2cc(COP(=O)(N3CC3)N3CC3)ccc2[N+](=O)[O-])cc1 [Compound 2941]
- IC50 (H460 cells; [2]): 4 nM

Compound: CC(OP(=O)(N1CC1)N1CC1)c1ccc([N+](=O)[O-])c(Oc2cccc([N+](=O)[O-])c2)c1 (stereo not drawn) [Compound 2942]
- IC50 (H460 cells; 2 hrs exposure): 20 nM

Compound: CC(OP(=O)(N1CC1)N1CC1)c1ccc([N+](=O)[O-])c(Oc2nccs2)c1 (stereo not drawn) [Compound 2944]
- IC50 (H460 cells; [2]): > 5000 nM

Compound: CC(OP(=O)(N1CC1)N1CC1)c1ccc([N+](=O)[O-])c(Oc2cccc3cnccc23)c1 (stereo not drawn) [Compound 2945]
- IC50 (H460 cells; [2]): 50 nM

Compound: CS(=O)(=O)Nc1ccc(Oc2cc(COP(=O)(N3CC3)N3CC3)ccc2[N+](=O)[O-])cc1 [Compound 2946]
- IC50 (H460 cells; [2]): 30 nM

Compound: CC(OP(=O)(N1CC1)N1CC1)c1ccc([N+](=O)[O-])c(O/N=C(\C#N)c2ccccc2)c1 (stereo not drawn) [Compound 2947]
- IC50 (H460 cells; [2]): 200 nM

Compound: N#C/C(=N\Oc1cc(COP(=O)(N2CC2)N2CC2)ccc1[N+](=O)[O-])c1ccccc1 [Compound 2948]
- IC50 (H460 cells; [2]): 40 nM

Compound: C/C(=N\Oc1cc(COP(=O)(N2CC2)N2CC2)ccc1[N+](=O)[O-])c1ccccc1 [Compound 2949]
- IC50 (H460 cells; [2]): 400 nM

Compound: CC(OP(=O)(N1CC1)N1CC1)c1ccc([N+](=O)[O-])c(Oc2cccc(S(C)(=O)=O)c2)c1 (stereo not drawn) [Compound 2950]
- IC50 (H460 cells; [2]): 40 nM

Compound: CS(=O)(=O)c1cccc(Oc2cc(COP(=O)(N3CC3)N3CC3)ccc2[N+](=O)[O-])c1 [Compound 2951]
- IC50 (H460 cells; [2]): 20 nM

Compound: CC(OP(=O)(N1CC1)N1CC1)c1ccc([N+](=O)[O-])c(Oc2cccc3ccccc23)c1 (stereo not drawn) [Compound 2954]
- IC50 (H460 cells; [2]): 100 nM

Compound: CC(OP(=O)(N1CC1)N1CC1)c1ccc([N+](=O)[O-])c(Oc2cnc3ccccc3c2)c1 (stereo not drawn) [Compound 2956]
- IC50 (H460 cells; [2]): 4 nM

Compound: CC(OP(=O)(N1CC1)N1CC1)c1ccc([N+](=O)[O-])c(Oc2ccc3cccnc3c2)c1 (stereo not drawn) [Compound 2957]
- IC50 (H460 cells; [2]): 40 nM

Compound: O=[N+]([O-])c1ccc(COP(=O)(N2CC2)N2CC2)c(Oc2ccccc2)c1 [Compound 2960]
- IC50 (H460 cells; [2]): 1600 nM

Compound: C/C(=N\Oc1cc(C(C)OP(=O)(N2CC2)N2CC2)ccc1[N+](=O)[O-])c1ccccc1 (stereo not drawn) [Compound 2961]
- IC50 (H460 cells; [2]): 2700 nM

Compound: O=[N+]([O-])c1ccc(COP(=O)(N2CC2)N2CC2)cc1Oc1cccc2ccccc12 [Compound 2966]
- IC50 (H460 cells; [2]): 200 nM

Compound: O=[N+]([O-])c1ccc(COP(=O)(N2CC2)N2CC2)cc1Oc1cccc2ncccc12 [Compound 2967]
- IC50 (H460 cells; [2]): 100 nM

Compound: O=[N+]([O-])c1ccc(COP(=O)(N2CC2)N2CC2)cc1Oc1ccc2ccccc2c1 [Compound 2968]
- IC50 (H460 cells; [2]): 4 nM

Compound: O=[N+]([O-])c1ccc(COP(=O)(N2CC2)N2CC2)cc1Oc1cnc2ccccc2c1 [Compound 2969]
- IC50 (H460 cells; [2]): 2 nM

Compound: O=[N+]([O-])c1ccc(COP(=O)(N2CC2)N2CC2)cc1Oc1ccc2cccnc2c1 [Compound 2970]
- IC50 (H460 cells; [2]): 40 nM

Compound: O=[N+]([O-])c1ccc(COP(=O)(N2CC2)N2CC2)cc1Oc1ccc2ncccc2c1 [Compound 2971]
- IC50 (H460 cells; [2]): 3 nM

Compound: CC(OP(=O)(N1CC1)N1CC1)c1ccc([N+](=O)[O-])c(Oc2cccc(C(=O)N3CCOCC3)c2)c1 (stereo not drawn) [Compound 2972]
- IC50 (H460 cells; [2]): 10 nM

Compound: O=C(c1cccc(Oc2cc(COP(=O)(N3CC3)N3CC3)ccc2[N+](=O)[O-])c1)N1CCOCC1 [Compound 2973]
- IC50 (H460 cells; [2]): 20 nM

Compound: CN(C(=O)c1ccc(Oc2cc(COP(=O)(N3CC3)N3CC3)ccc2[N+](=O)[O-])cc1)c1ccccc1 [Compound 2974]
- IC50 (H460 cells; [2]): 1 nM

Compound: CC(OP(=O)(N1CC1)N1CC1)c1ccc([N+](=O)[O-])c(Oc2ccc(C(=O)N(C)c3ccccc3)cc2)c1 (stereo not drawn) [Compound 2978]
- IC50 (H460 cells; [2]): 2 nM

Compound: CC(OP(=O)(N1CC1)N1CC1)c1ccc([N+](=O)[O-])c(Oc2ccccc2S(C)(=O)=O)c1 (stereo not drawn) [Compound 2980]
- IC50 (H460 cells; [2]): 3000 nM

Compound: CS(=O)(=O)c1ccccc1Oc1cc(COP(=O)(N2CC2)N2CC2)ccc1[N+](=O)[O-] [Compound 2981]
- IC50 (H460 cells; [2]): 3700 nM

Compound: CC(OP(=O)(N1CC1)N1CC1)c1ccc([N+](=O)[O-])c(Oc2cccc(C(=O)N3CCCCC3)c2)c1 (stereo not drawn) [Compound 2982]
- IC50 (H460 cells; [2]): 4 nM

Compound: O=C(c1cccc(Oc2cc(COP(=O)(N3CC3)N3CC3)ccc2[N+](=O)[O-])c1)N1CCCCC1 [Compound 2983]
- IC50 (H460 cells; [2]): 4 nM

Compound: CC(OP(=O)(N1CC1)N1CC1)c1ccc([N+](=O)[O-])c(Oc2cccc(C(=O)N3CCCC3)c2)c1 (stereo not drawn) [Compound 2984]
- IC50 (H460 cells; [2]): 5 nM

Compound: CCN(CC)C(=O)c1cccc(Oc2cc(C(C)OP(=O)(N3CC3)N3CC3)ccc2[N+](=O)[O-])c1 (stereo not drawn) [Compound 2985]
- IC50 (H460 cells; [2]): 4 nM

Compound: CC(OP(=O)(N1CC1)N1CC1)c1ccc([N+](=O)[O-])c(Oc2cccc(-c3ccccc3)c2)c1 (stereo not drawn) [Compound 2991]
- IC50 (H460 cells; [2]): 6 nM

Compound: CC(OP(=O)(N1CC1)N1CC1)c1ccc([N+](=O)[O-])c(Oc2cccc(C(=O)N(C)c3ccccc3)c2)c1 (stereo not drawn) [Compound 2992]
- IC50 (H460 cells; [2]): 4 nM

Compound: CC(OP(=O)(N1CC1)N1CC1)c1ccc([N+](=O)[O-])c(Oc2cccc(C(=O)N3CCS(=O)(=O)CC3)c2)c1 (stereo not drawn) [Compound 2993]
- IC50 (H460 cells; [2]): 20 nM

Compound: CC(OP(=O)(N1CC1)N1CC1)c1ccc([N+](=O)[O-])c(Oc2ccccc2-c2ccccc2)c1 (stereo not drawn) [Compound 3028]
- IC50 (H460 cells; [2]): 700 nM

Compound: O=[N+]([O-])c1ccc(COP(=O)(N2CC2)N2CC2)cc1Oc1ccccc1-c1ccccc1 [Compound 3029]
- IC50 (H460 cells; [2]): 600 nM

Compound: Cc1ccc(Oc2cc(C(C)OP(=O)(N3CC3)N3CC3)ccc2[N+](=O)[O-])cc1 (stereo not drawn) [Compound 3030]
- IC50 (H460 cells; [2]): 20 nM

Compound: Cc1ccc(Oc2cc(COP(=O)(N3CC3)N3CC3)ccc2[N+](=O)[O-])cc1 [Compound 3031]
- IC50 (H460 cells; [2]): 10 nM

Compound: Cc1ccccc1-c1ccc(Oc2cc(C(C)OP(=O)(N3CC3)N3CC3)ccc2[N+](=O)[O-])cc1 (stereo not drawn) [Compound 3032]
- IC50 (H460 cells; [2]): 3 nM

Compound: Cc1ccccc1-c1ccc(Oc2cc(COP(=O)(N3CC3)N3CC3)ccc2[N+](=O)[O-])cc1 [Compound 3033]
- IC50 (H460 cells; [2]): 1 nM

Compound: CC(OP(=O)(N1CC1)N1CC1)c1ccc([N+](=O)[O-])c(Oc2ccc(C(C)(C)C)cc2)c1 (stereo not drawn) [Compound 3034]
- IC50 (H460 cells; [2]): 8 nM

Compound: CC(C)(C)c1ccc(Oc2cc(COP(=O)(N3CC3)N3CC3)ccc2[N+](=O)[O-])cc1 [Compound 3035]
- IC50 (H460 cells; [2]): 1 nM

Compound: CC(OP(=O)(N1CC1)N1CC1)c1ccc([N+](=O)[O-])c(Oc2ccc(C(F)(F)F)cc2)c1 (stereo not drawn) [Compound 3036]
- IC50 (H460 cells; [2]): 4 nM

Compound: O=[N+]([O-])c1ccc(COP(=O)(N2CC2)N2CC2)cc1Oc1ccc(C(F)(F)F)cc1 [Compound 3037]
- IC50 (H460 cells; [2]): 1 nM

Compound: CC(OP(=O)(N1CC1)N1CC1)c1ccc([N+](=O)[O-])c(Oc2ccc(-c3ccc(Cl)cc3)cc2)c1 (stereo not drawn) [Compound 3041]
- IC50 (H460 cells; [2]): 50 nM

Compound: CC(OP(=O)(N1CC1)N1CC1)c1ccc([N+](=O)[O-])c(Oc2ccc(-c3ccc(F)cc3)cc2)c1 (stereo not drawn) [Compound 3042]
- IC50 (H460 cells; [2]): 5 nM

Compound: O=[N+]([O-])c1ccc(COP(=O)(N2CC2)N2CC2)cc1Oc1ccc(-c2ccncc2)cc1 [Compound 3050]
- IC50 (H460 cells; [2]): 10 nM

From patent US10766914B2, “DNA alkylating agents” (OBI PHARMA, INC., priority 2015, dated 2020)
